Test results taken from PubChem BioAssay (NCI).
Values joined by “and” are separate entries in the source; they are usually repeats but may differ in a detail not shown here. Identical values can stand only once.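 The compound was tested at five concentrations on cells cultured in 96-well plates, with a 48-hour exposure period. GI50: concentration for 50% inhibition of growth. TGI: total growth inhibition.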

How the values were obtained:
Test in all cases: NCI-60 cell line screen, 48 h
[1] = test system: ACHN renal
[2] = test system: BT-549 breast
[3] = test system: HL-60(TB) leukemia
[4] = test system: HT29 colon
[5] = test system: MCF7 breast
[6] = test system: OVCAR-3 ovarian
[7] = test system: SK-MEL-2 melanoma
[8] = test system: SK-MEL-5 melanoma
[9] = test system: SN12C renal
[10] = test system: SR leukemia

Compound	TGI [1]	TGI [2]	TGI [3]	TGI [4]	TGI [5]	TGI [6]	TGI [7]	TGI [8]	TGI [9]	TGI [10]	GI50 [3]	GI50 [6]	GI50 [7]	GI50 [8]
Cc1cc(C(C)(C)C)c(OCCCN2CCOCC2)c(C(C)(C)C)c1	31.2 µM	31.9 µM	29 µM	32.7 µM	33.6 µM	36.1 µM	31.3 µM	30 µM	33 µM	47 µM	–	–	–	–
Nc1ncnc2c(C3OC(CO)C(O)C3O)c[nH]c12 (stereo unspecified)	–	0.237 µM and 0.297 µM	–	0.343 µM and 1.21 µM	0.0807 µM	0.0342 µM and 0.124 µM	0.0101 µM and < 0.0304 µM	–	0.0946 µM and 0.537 µM	0.272 µM	0.000721 µM	0.0116 µM	0.00179 µM	0.0187 µM
Cc1ccc2c(=O)c3c(O)c4c(cc3n(C)c2c1)OC(C)(C)C=C4	> 10 µM	> 10 µM	> 10 µM	> 10 µM	> 10 µM	> 10 µM	> 10 µM	> 10 µM	> 10 µM	> 10 µM	–	–	–	–
O=C(NC(Cc1c[nH]c2ccccc12)C(=O)O)/C(=C/c1ccccc1)NC(=O)c1ccccc1 (stereo unspecified)	> 100 µM	> 100 µM	> 100 µM	> 100 µM	> 100 µM	> 100 µM	> 100 µM	> 100 µM	> 100 µM	> 100 µM	–	–	–	–
COc1ccc(/C=C(\C#N)c2nc(-c3cc4ccccc4oc3=O)cs2)cc1	42.2 µM	30.3 µM	> 100 µM	> 100 µM	> 100 µM	–	> 100 µM	> 100 µM	> 100 µM	> 100 µM	–	–	–	–
Cc1cc2nnn(C3CCCO3)c2cc1C (stereo unspecified)	–	> 100 µM	> 100 µM	> 100 µM	> 100 µM	> 100 µM	> 100 µM	> 100 µM	> 100 µM	> 100 µM	–	–	–	–
CCCNC(=O)Cn1c(-c2ccccc2)cc2ccccc21	> 100 µM	> 100 µM	> 100 µM	> 100 µM	> 100 µM	> 100 µM	> 100 µM	> 100 µM	> 100 µM	> 100 µM	–	–	–	–
CN1C(C(=O)Nc2ccccn2)=C(O)c2ccccc2S1(=O)=O	> 100 µM	> 100 µM	> 100 µM	> 100 µM	> 100 µM	> 100 µM	> 100 µM	> 100 µM	> 100 µM	> 100 µM	–	–	–	–
CN(NC(=O)/C(=C/C=C/c1ccccc1)NC(=O)c1ccccc1)C1=C(Cl)C(=O)[N+](c2ccccc2)=CC1	81 µM	49.6 µM	–	> 100 µM	36.3 µM	44.9 µM	70.9 µM	27.4 µM	66 µM	66.6 µM	–	–	–	–
Cn1cnc([N+](=O)[O-])c1Sc1nncc2[nH]cnc12	> 100 µM	> 100 µM	> 100 µM	> 100 µM	> 100 µM	> 100 µM	> 100 µM	> 100 µM	> 100 µM	> 100 µM	–	–	–	–
C1CN(C23OC4(N5CCOCC5)C5C6CC(C7C6C4C72)C53)CCO1 (stereo unspecified)	> 31.6 µM	> 100 µM	> 100 µM	> 100 µM	> 100 µM	> 100 µM	> 100 µM	> 100 µM	> 100 µM	> 100 µM	–	–	–	–
CCCS(=O)OC1C(C2COC(C)(C)O2)OC2OC(C)(C)OC21 (stereo unspecified)	26.9 µM	24.5 µM	–	17.9 µM	27.3 µM	29.3 µM	37.4 µM	27.7 µM	31.8 µM	4.34 µM	–	–	–	–
COc1ccc(C2=C(N)c3ccccc3C2=O)cc1	> 100 µM	> 100 µM	> 100 µM	> 100 µM	> 100 µM	> 100 µM	> 100 µM	> 100 µM	> 100 µM	> 100 µM	–	–	–	–
O=c1oc2ccccc2cc1-c1nc2ccccc2s1	> 20.1 µM	46.4 µM	> 100 µM	25.8 µM	6.53 µM	20.7 µM	60.2 µM	> 75.1 µM	> 50.7 µM	> 100 µM	–	–	–	–
CCCCC[C@@H]1OC(=O)[C@@]2(CC3c4ccccc4C2c2ccccc23)[C@H]1C(=O)OC	> 100 µM	> 100 µM	33.1 µM	> 100 µM	> 100 µM	> 100 µM	> 100 µM	39.2 µM	> 100 µM	> 100 µM	–	–	–	–
COc1ccc(N2C(=O)CSC2c2cc(OC)c(OC)c(OC)c2)cc1 (stereo unspecified)	40.9 µM	52.1 µM	69.8 µM	57.1 µM	> 100 µM	64.8 µM	> 100 µM	87.2 µM	65.9 µM	51.3 µM	–	–	–	–
CCOC(=O)c1c(C)n(CCN2CCN(C)CC2)c2ccc(OC)cc12	> 100 µM	> 100 µM	58 µM	71.2 µM	> 100 µM	> 100 µM	35.3 µM	30.8 µM	> 100 µM	46.3 µM	–	–	–	–
O=c1[nH]nc(Cc2ccc([N+](=O)[O-])cc2)[nH]1	> 100 µM	> 100 µM	> 100 µM	> 100 µM	> 100 µM	> 100 µM	> 100 µM	> 100 µM	> 100 µM	> 100 µM	–	–	–	–
CC(CN(C)C)C(O)(c1ccccc1)c1ccccc1 (stereo unspecified)	> 100 µM	> 100 µM	> 100 µM	> 100 µM	> 100 µM	> 100 µM	> 100 µM	> 100 µM	> 100 µM	> 100 µM	–	–	–	–
CC1=C(C(=O)OC(C)C)C(c2cccc([N+](=O)[O-])c2)C(C(=O)OC(CO[N+](=O)[O-])CO[N+](=O)[O-])=C(C)N1 (stereo unspecified)	> 100 µM	14.7 µM	–	21 µM	1.12 µM	> 22.1 µM	5.61 µM	4.13 µM	> 34 µM	15.6 µM	–	–	–	–
C=C(Cl)C(=C)CCC(Cl)C(C)(C)Cl (stereo unspecified)	> 100 µM	> 100 µM	> 100 µM	> 100 µM	> 100 µM	> 100 µM	> 100 µM	> 100 µM	> 100 µM	> 100 µM	–	–	–	–
